Read-outs that look alike come from different tables or passages of the source.
How the values were obtained:
[1] = tested on: PC9; assay: Cell cytotoxicity assay (MTS), PC9; type: cell-based; settings: Homo sapiens, PC-9, PC9, 72 h
Procedure: (§1) Cells were seeded into the wells of 96-well plates (2000 cells/well). After an overnight culture, the cells were treated with different concentrations of a compound for 72 h. The CellTiter 96 AQueous one-solution cell proliferation assay (MTS) reagent was used to determine cytotoxicity. After treatment with a compound, 20 μL of the MTS reagent was added to each well and the plates were incubated at 37° C. for 1-4 h. Next, the absorbance at 490 nm of the culture medium in each well was determined using a VersaMax microplate reader (Molecular Devices).

[2] = tested on: H1975 cells; assay: Cell cytotoxicity assay (MTS), H1975; type: cell-based, human; settings: H1975 cells, 72 h, MTS, read-out: IC50
Procedure: as §1

[3] = tested on: CL1-0 and H1975 cells; assay: Pro-apoptotic protein immunoblotting, cancer cells; type: cell-based, human; settings: 24 to 72 h
Procedure: The cells were harvested and lysed in RIPA buffer (20 mM Tris-HCl, 150 mM NaCl, 1 mM Na2EDTA, 1% sodium deoxycholate, 1% IGEPAL CA-630, 0.1% SDS, pH 7.5) with protease inhibitors (Roche). Protein concentration was measured by the BCA assay. For immunoprecipitation, protein extracts were incubated with mag-beads-AS1712 or mag-beads-control at 4° C. overnight and then washed five times with PBS before immunoblotting. For immunoblotting, equivalent amounts of denatured proteins were separated through SDS-PAGE gels and then transferred to PVDF membranes (Millipore), which were each blocked with 5% nonfat milk in PBS and 0.1% Tween-20 (Sigma Aldrich) for 1 h. Then each membrane was incubated with a primary antibody overnight at 4° C., followed by incubation with a horseradish peroxidase conjugated secondary antibody for 1 h at room temperature. The signal was visualized by enhanced chemiluminescence detection, and images were acquired using a BioSpectrum Imaging System (UVP).

[4] = tested on: 82T; assay: Cell cytotoxicity assay (MTS), 82T; type: cell-based; settings: Homo sapiens, 72 h
Procedure: as §1

[5] = tested on: SW620; assay: Cell cytotoxicity assay (MTS), SW620; type: cell-based; settings: Homo sapiens, SW-620
Procedure: as §1

[6] = tested on: OECM1; assay: Cell cytotoxicity assay (MTS), OECM1; type: cell-based; settings: Homo sapiens
Procedure: as §1

[7] = tested on: H1975 xenograft tumor; assay: H1975 xenograft tumor model; type: in vivo, BALB/c nude mice; settings: day 25
Procedure: (§2) Using the H1975, MDA-MB-231, and KBtax xenograft models, tumors were established after inoculation into the right flanks of 6-week-old BALB/c nude mice (NARLabs, Taipei, Taiwan). After establishment of the tumors, vehicle and test compounds, which had been dissolved in DMSO, were each injected intraperitoneally into a separate group of animals three times per week. The body mass of each animal and tumor volumes were measured before each drug delivery. Tumor volume was calculated as 0.5W^2L (with W being the width of the smaller diameter and L being the length of the larger diameter). The animal experiment was carried out in accordance with the procedures and guidelines of the Institutional Animal Care and Use Committee, Institute of Biomedical Sciences, Academia Sinica.

[8] = tested on: HCT116; assay: Cell cytotoxicity assay (MTS), HCT116; type: cell-based; settings: Homo sapiens, HCT-116
Procedure: as §1

[9] = tested on: Hs578t; assay: Cell cytotoxicity assay (MTS), Hs578t; type: cell-based; settings: Homo sapiens, Hs-578T, 72 h
Procedure: as §1

[10] = tested on: 23 cancer cell lines; assay: Cytotoxicity against 23 cancer cell lines; type: cell-based, human
Procedure: as §1

[11] = tested on: HT-29; assay: Cell cytotoxicity assay (MTS), HT-29; type: cell-based; settings: Homo sapiens
Procedure: as §1

[12] = tested on: KBvin; assay: Cell cytotoxicity assay (MTS), KBvin; type: cell-based, human
Procedure: as §1

[13] = tested on: MDA-MB-231; assay: Cell cytotoxicity assay (MTS), MDA-MB-231; type: cell-based; settings: Homo sapiens, MDA-MB-231, 72 h
Procedure: as §1

[14] = tested on: Molt4; assay: Cell cytotoxicity assay (MTS), Molt4; type: cell-based; settings: Homo sapiens, MOLT-4
Procedure: as §1

[15] = biological target: colchicine site of tubulin (Sus scrofa, UniProt P02554); assay: Colchicine competition assay; type: binding; settings: 37° C. for 1 h
Procedure: Tubulin ([…]) and colchicine ([…]) were incubated with the various concentrations of AS1712, nocodazole, or vincristine in 80 mM PIPES, 2 mM MgCl2, 0.5 mM EGTA, pH 6.9 at 37° C. for 1 h. Fluorescence intensities (excitation and emission wavelengths at 365 and 435 nm, respectively) were recorded using an Infinite M200 plate reader (Tecan). Fluorescence values were normalized to the DMSO control.

[16] = tested on: human fibroblast (HFB) cells; assay: Cell cytotoxicity assay (MTS), human fibroblast; type: cell-based; settings: normal cell line HFB
Procedure: as §1

[17] = tested on: KBtax; assay: Cell cytotoxicity assay (MTS), KBtax; type: cell-based, human
Procedure: as §1

[18] = tested on: KB; assay: Cell cytotoxicity assay (MTS), KB; type: cell-based; settings: Homo sapiens
Procedure: as §1

[19] = biological target: T1, Purified porcine tubulin (Sus scrofa, UniProt P02554); assay: In vitro tubulin polymerization assay; type: biochemical; settings: 5 μM, A340 every min for 1 h at 37° C.
T1 construct: purchased Cytoskeleton
Procedure: Reagents from a Tubulin Polymerization Assay kit (Cytoskeleton) were used according to the manufacturer's instructions. Purified porcine tubulin (4 mg/mL; >99% purity) in G-PEM buffer (80 mM PIPES, 2 mM MgCl2, 0.5 mM EGTA, 1 mM GTP, 15% glycerol, pH 6.9) was mixed with each test compound in the wells of a 96-well plate. Then, the A340 value was recorded each minute for 1 h at 37° C. with the VersaMax microplate reader.

[20] = tested on: BT-549; assay: Cell cytotoxicity assay (MTS), BT-549; type: cell-based; settings: Homo sapiens, BT-549, 72 h
Procedure: as §1

[21] = Body mass and serum biochemical markers, H1975 xenograft mice; type: in vivo, BALB/c nude mice; settings: for ALT (IU/L) / AST(IU/L) / BUN / Cre: day 25, mean ± SEM
Procedure: as §2

[22] = tested on: CL1-0; assay: Cell cytotoxicity assay (MTS), CL1-0; type: cell-based; settings: Homo sapiens, CL1-0, 72 h
Procedure: as §1

CCOC(=O)c1ccc2[nH]c(-c3ccccc3)cc(=O)c2c1 [AS1712, Ethyl 4-oxo-2-phenyl-1,4-dihydroquinoline-6-carboxylate]
IC50 [1]: 17 ± 2.09 nM | IC50 [2]: 35 nM | IC50 ([2]; Homo sapiens, NCI-H1975, 72 h): 33 ± 4.86 nM | cleavage of poly(ADP-ribose) polymerase (PARP) and caspase-3 [3]: induced cleavage | IC50 [4]: 35 ± 0.67 nM | IC50 [5]: 35 ± 1.18 nM | IC50 [6]: 52 ± 1.94 nM | average tumor size ([7]; 4 mg/kg intraperitoneally three times a week): 871.3±106 mm^3 | average tumor size ([7]; 8 mg/kg intraperitoneally three times a week): 587.2±67 mm^3 | IC50 [8]: 50 ± 0.81 nM | IC50 [9]: 41 ± 2.87 nM | IC50 ([10]; Homo sapiens, lung, breast, ovarian, head and neck, colon, prostate, leukemia lines, read-out: IC50 values for the 23 cancer cell lines tested): 16 to 84 nM | therapeutic window ([10]; cancer cell lines vs normal cells): > 100 fold | IC50 [11]: 48 ± 0.62 nM | IC50 ([12]; Homo sapiens, KBvin, P-gp overexpressing, vincristine-selected KB subline): 37 ± 0.77 nM | RF, resistance factor (IC50 in resistant cell line/IC50 in parent cell line) ([12]; KBvin vs KB): 1 | IC50 [13]: 55 ± 6.83 nM | IC50 [14]: 38 ± 1.03 nM | colchicine fluorescence [15]: decreased the colchicine fluorescence in a dose-dependent manner | IC50 [16]: > 10000 nM | IC50 ([17]; Homo sapiens, KBtax, P-gp overexpressing, paclitaxel-selected KB subline): 30 ± 0.65 nM | RF, resistance factor (IC50 in resistant cell line/IC50 in parent cell line) ([17]; KBtax vs KB): 0.81 | IC50 [18]: 37 ± 0.27 nM | tubulin polymerization [19]: directly inhibit tubulin polymerization | IC50 [20]: 33 ± 1.51 nM | ALT (IU/L) ([21]; 4 mg/kg): 40.8 ± 11 IU/L | AST(IU/L) ([21]; 4 mg/kg): 138.7 ± 58.6 IU/L | BUN ([21]; 4 mg/kg): 23.2 ± 2.5 mg/dL | Cre ([21]; 4 mg/kg): 0.26 ± 0.05 mg/dL | ALT (IU/L) ([21]; 8 mg/kg): 54.2 ± 16 IU/L | AST(IU/L) ([21]; 8 mg/kg): 170.8 ± 44.5 IU/L | BUN ([21]; 8 mg/kg): 20.9 ± 1.5 mg/dL | Cre ([21]; 8 mg/kg): 0.17 ± 0.02 mg/dL | body mass ([21]; 4 or 8 mg/kg i.p. three times a week, end of experiment): non-toxic affected | IC50 [22]: 16 ± 2.48 nM

Source: US12109207B2, “Methods of using 4(1H)-quinolone derivatives” (Academia Sinica, priority 2019, dated 2024)
